Measured values as given in US20200009262A1, “TARGETED CONSTRUCTS AND FORMULATIONS THEREOF” (TARVEDA THERAPEUTICS, INC., priority 2016, published 2020).
Where two headings read alike, the source gives them in different places.

What was measured:
Once/week MTD = settings: in vivo
[1] = Blood pressure study, tail cuff, 10 minute intravenous infusion; format: in vivo, Sprague Dawley rats; settings: 400 nmol/kg infused over 10 minutes; significant drop = drop of at least 10%
Experimental: An external pumping device was used to deliver the target dose volume for each animal over a 10 minute dosing interval. Blood pressure was measured by tail cuff using the CODA Non-Invasive Blood Pressure system. Animals were placed in restrainers with the tail cuff on. The animals and the restrainers were then placed on a heating pad for approximately 5 minutes. Following the 5 minute heating pad acclimation an additional acclimation data collection took place prior to dose initiation for approximately 5 minutes. Blood pressure data began at dose initiation and was collected through at least 30 minutes postdose. […] Test articles were infused over 10 minutes. The start and stop times for the following processes were documented. The following parameters were collected: diastolic pressure, systolic pressure, mean blood pressure, heart rate, tail blood flow, and tail blood volume.

[2] = In vivo half-life / NCA pharmacokinetics of albumin binding conjugates in rat plasma; parameters: species or system rats; settings: for half-life: iv, 1 mg/kg
Experimental: Compound 3 and Compound 4 were administered to rats at 1 mg/kg via IV. […] Therefore, the concentration of Compound 3′ is measured after treating plasma samples at a low pH.

SW48 cells = test: IC50 in SW48 cells; format: cell-based, human
[3] = tested on: SW48 xenograft model (human colorectal cancer); test: Efficacy study in SW48 xenograft model, tumor growth inhibition; format: in vivo; settings: irinotecan 50 mg/kg once/week for two weeks
Experimental: Efficacy of Compound 3 was tested in an SW48 xenograft model (human colorectal cancer). Efficacies of the other compounds in Table 2 were also tested. All conjugates were dosed twice/week for two weeks.

[4] = transthyretin, 55 KDa serum protein, background statement; cited from earlier work
[5] = in vivo, IV 1.0 mg/kg, plasma, measured as Compound 3′ after low pH treatment
[6] = Day 4, conjugates twice/week for two weeks (3, 4, 7, 8: 2.0 mg/kg; 5, 6: 0.025 mg/kg)
[7] = Day 8, conjugates twice/week for two weeks (3, 4, 7, 8: 2.0 mg/kg; 5, 6: 0.025 mg/kg)
[8] = Day 10, conjugates 2.0 mg/kg twice/week for two weeks
[9] = Day 14, conjugates 2.0 mg/kg twice/week for two weeks
[10] = Day 17, conjugates 2.0 mg/kg twice/week for two weeks
[11] = Day 21, conjugates 2.0 mg/kg twice/week for two weeks

Question: What does the source list for `COc1cc2cc(c1Cl)N(C)C(=O)C[C@H](OC(=O)[C@H](C)N(C)C(=O)CCSC1CC(=O)N(CCCNC(=O)CNC(=O)[C@H](CC(C)C)NC(=O)[C@H](Cc3ccccc3)NC(=O)CNC(=O)CCC(=O)NCCCC[C@H](NC(=O)c3ccc(/C(C)=N/NC(=O)CCCCCN4C(=O)C=CC4=O)cc3)C(=O)N3CCC[C@H]3C(=O)N(C)[C@@H](CCCNC(=N)N)C(=O)N[C@@H](CCCNC(=N)N)C(=O)N3CCC[C@H]3C(=O)N[C@@H](Cc3ccc(O)cc3)C(=O)N[C@H](C(=O)N[C@@H](CC(C)C)C(=O)O)C(C)(C)C)C1=O)[C@]1(C)O[C@H]1[C@H](C)[C@@H]1C[C@@](O)(NC(=O)O1)[C@H](OC)/C=C/C=C(\C)C2` (stereo partly drawn) [Compound 3]?
Answer: MTD (Once/week MTD): 4 to 8 mg/kg; mean blood pressure change [1]: no significant drop in mean blood pressure; rat plasma half-life relative to Compound 4 (does not bind albumin) ([2]; IV 1 mg/kg): 80 fold; AUC [2, 5]: 33.7 µM·h; AUC(0-inf) [2, 5]: 39.3 µM·h; Cmax [2, 5]: 4.69 µM; clearance [2, 5]: 0.16 mL/min/kg; Vd ([2]; in vivo, IV 1.0 mg/kg, plasma, measured as Compound 3′ after low pH treatment, read-out: Vss): 0.107 L/kg; half-life ([2]; in vivo, IV 1.0 mg/kg, plasma, measured as Compound 3′ after low pH treatment of plasma samples, read-out: t½ (converted)): 9.32 h; half-life ([2]; in vivo, IV 1 mg/kg, read-out: rat plasma half-life (converted)): 9.3 h

Question: For `COc1cc2cc(c1Cl)N(C)C(=O)C[C@H](OC(=O)[C@H](C)N(C)C(=O)CCSC1CC(=O)N(CCCNC(=O)CNC(=O)[C@H](CC(C)C)NC(=O)[C@H](Cc3ccccc3)NC(=O)CNC(=O)CCC(=O)NCCCC[C@H](NC(C)=O)C(=O)N3CCC[C@H]3C(=O)N(C)[C@@H](CCCNC(=N)N)C(=O)N[C@@H](CCCNC(=N)N)C(=O)N3CCC[C@H]3C(=O)N[C@@H](Cc3ccc(O)cc3)C(=O)N[C@H](C(=O)N[C@@H](CC(C)C)C(=O)O)C(C)(C)C)C1=O)[C@]1(C)O[C@H]1[C@H](C)[C@@H]1C[C@@](O)(NC(=O)O1)[C@H](OC)/C=C/C=C(\C)C2` (stereo partly drawn) [Compound 4], which IC50 (SW48 cells) is on record?
Answer: 3.7 nM

Question: What about the MTD (Once/week MTD) of the same compound?
Answer: > 8 mg/kg

Question: And the “mean blood pressure change” value [1]?
Answer: significant drop in mean blood pressure

Question: And the “degradation in rat plasma compared with albumin bound Compound 3” value ([2]; IV 1 mg/kg, FIG. 3)?
Answer: degraded faster

Question: Which TGI % [3, 6] does the source give for `COc1ccc(C2=CN3C(=O)c4cc(OC)c(OCCCOc5cc6c(cc5OC)C(=O)N5C=C(c7ccc(NC(=O)[C@H](C)NC(=O)[C@@H](NC(=O)CCCCCN8C(=O)CC(SCCC(=O)NCCCC[C@H](NC(C)=O)C(=O)N9CCC[C@H]9C(=O)N(C)[C@@H](CCCNC(=N)N)C(=O)N[C@@H](CCCNC(=N)N)C(=O)N9CCC[C@H]9C(=O)N[C@@H](Cc9ccc(O)cc9)C(=O)N[C@H](C(=O)N[C@@H](CC(C)C)C(=O)O)C(C)(C)C)C8=O)C(C)C)cc7)C[C@H]5C=N6)cc4N=C[C@@H]3C2)cc1` (stereo partly drawn) [Compound 5] here?
Answer: 21.3%

Question: And the TGI % [3, 7]?
Answer: 45.9%

Question: What about the IC50 (SW48 cells) of the same compound?
Answer: 1.8 nM

Question: And the MTD (Once/week MTD)?
Answer: 0.05 mg/kg

Question: Which results are given for `COc1ccc(C2=CN3C(=O)c4cc(OC)c(OCCCOc5cc6c(cc5OC)C(=O)N5C=C(c7ccc(NC(=O)[C@H](C)NC(=O)[C@@H](NC(=O)CCCCCN8C(=O)CC(SCCC(=O)NCCCC[C@H](NC(C)=O)C(=O)N9CCC[C@H]9C(=O)N[C@@H](CC(C)C)C(=O)N9CCC[C@H]9C(=O)N(C)[C@@H](CCCNC(=N)N)C(=O)N[C@H](C(=O)N[C@@H](CCCNC(=N)N)C(=O)N[C@@H](Cc9ccc(O)cc9)C(=O)O)C(C)(C)C)C8=O)C(C)C)cc7)C[C@H]5C=N6)cc4N=C[C@@H]3C2)cc1` (stereo partly drawn) [Compound 6]?
Answer: TGI % [3, 6]: 22.2%; TGI % [3, 7]: 28.3%; IC50 (SW48 cells): 4 nM; MTD (Once/week MTD): 0.05 mg/kg

Question: For `COc1cc2cc(c1Cl)N(C)C(=O)C[C@H](OC(=O)[C@H](C)N(C)C(=O)CCSC1CC(=O)N(CCCNC(=O)CNC(=O)[C@H](CC(C)C)NC(=O)[C@H](Cc3ccccc3)NC(=O)CNC(=O)CCC(=O)NCCCC[C@H](NC(C)=O)C(=O)N3CCC[C@H]3CN[C@@H](CC(C)C)C(=O)N3CCC[C@H]3C(=O)N(C)[C@@H](CCCNC(=N)N)C(=O)N[C@H](C(=O)N[C@@H](CCCNC(=N)N)C(=O)N[C@@H](Cc3ccc(O)cc3)C(=O)O)C(C)(C)C)C1=O)[C@]1(C)O[C@H]1[C@H](C)[C@@H]1C[C@@](O)(NC(=O)O1)[C@H](OC)/C=C/C=C(\C)C2` (stereo partly drawn) [Compound 7], which TGI % [3, 6] is on record?
Answer: −11%

Question: And the TGI % [3, 7]?
Answer: −22.6%

Question: And the TGI % [3, 8]?
Answer: −29.7%

Question: And the TGI % [3, 9]?
Answer: −32%

Question: And the TGI % [3, 10]?
Answer: −48.3%

Question: What about the TGI % [3, 11] of the same compound?
Answer: −52.8%

Question: And the MTD (Once/week MTD)?
Answer: > 8 mg/kg

Question: For `CCc1c2c(nc3ccc(OC(=O)N4CCC(N5CCCCC5)CC4)cc13)-c1cc3c(c(=O)n1C2)COC(=O)[C@]3(O)CC` [Irinotecan, irinotecan, reference compound], which TGI % [3, 7] is on record?
Answer: 10%

Question: What about the TGI % [3, 8] of the same compound?
Answer: 12.8%

Question: What about the TGI % [3, 9] of the same compound?
Answer: 33%

Question: What about the TGI % [3, 10] of the same compound?
Answer: 34.9%

Question: And the TGI % [3, 11]?
Answer: 33.9%

Question: And the MTD (Once/week MTD)?
Answer: 50 mg/kg

Question: Which in vivo half-life [4] does the source give for Transthyretin here?
Answer: around 48 h
